# Experiments:
# [1] = tested on: Hras5 tumours (NIH 3T3 fibroblasts transfected with Harvey ras, clone 5); assay: Hras5 necrosis model; assay type: in vivo, nude mice; settings: single dose, culled 24 hours after dosing
# Protocol: NIH 3T3 fibroblasts transfected with Harvey ras, clone 5, (Hras5 cells) were kept in continual passage in Dulbecco's modifed Eagles medium (DMEM) containing 10% foetal bovine serum (FBS) and 1% glutamine, at 37° C. in a humidified incubator gassed with 7.5% carbon dioxide and […]. Cells were implanted subcutaneously into the left flank of male nude mice (8-10 weeks of age) at an inoculum of 2×10^5 cells/mouse. Tumours were measured using calipers and randomised into groups of 2-4 mice between days 9-14 after implant. Mice were dosed with compounds, either intravenously or intraperitoneally, once on day of randomisation and culled 24 hours after dosing. Compounds were dissolved in 20% hydroxypropyl beta cyclodextrin in physiological saline at pH 7 and dosed in a volume of 0.1 ml per 10 g body weight. Tumours were excised, weighed and placed in buffered formalin. Area of necrosis in individual tumours was assessed from a haematoxylin/eosin stained-slide by a pathologist and scored from 0, meaning no significant change, to 10, meaning 91-100% necrosis. The activity of examples 5 and 7 (described hereinafter) against tumour vasculature was measured by the fluorescent dye method described hereinabove. Example 1 scored 6.0 at 100 m/kg and example 4 scored 3.2 at 50 m/kg.
# [2] = tested on: tumour vasculature of CaNT tumours; assay: Activity against tumour vasculature measured by fluorescent dye (Hoechst 33342); assay type: in vivo; settings: CaNT tumour-bearing mice, 50 mg/kg intraperitoneally, dye 24 hours after drug treatment
# Protocol: (b) Activity Against Tumour Vasculature Measured by Fluorescent Dye
# Tumour functional vascular volume in CaNT tumour-bearing mice was measured using the fluorescent dye Hoechst 33342 according to the method of Smith et al (Brit. Jnl. Cancer 1988, 57, 247-253). Five animals were used in control and treated groups. The fluorescent dye was dissolved in saline at 6.25 mg/ml and injected intravenously at 10 mg/kg 24 hours after intraperitoneal drug treatment. One minute later, animals were killed and tumours excised and frozen; 10 μm sections were cut at 3 different levels and observed under UV illumination using an Olympus microscope equipped with epifluorescence. Blood vessels were identified by their fluorescent outlines and vascular volume was quantified using a point scoring system based on that described by Chalkley, (Jnl. Natl. Cancer Inst., 1943, 4, 47-53). All estimates were based on counting a minimum of 100 fields from sections cut at the 3 different levels.
# tubulin = settings: O. Boye et al Med. Chem. Res., 1991, 1, 142-150; read-out: IC50 in a tubulin polymerisation assay; cited from earlier work
smiles,measurement,setting,value
"COc1ccc2c(c1)[C@@H](NC(=O)CNC(=O)CN)CCc1cc(OC)c(OC)c(OC)c1-2 [Example 1, N-[(5S)-3,9,10,11-Tetramethoxy-6,7-dihydro-5H-dibenzo[a,c]cyclohepten-5-yl]-2-[2-aminoacetylamino]acetamide]","necrosis score (0 = no significant change, 10 = 91-100% necrosis)",[1]; 100 m/kg,6.0
"COc1cc2c(c(OC)c1OC)-c1ccc(N)cc1C(NC(C)=O)CC2 (stereo not shown) [N-[3-amino-9,10,11-trimethoxy-6,7-dihydro-5H-dibenzo[a,c]cyclohepten-5-yl]acetamide]",decrease of perfused vascular volume relative to control,[2],88%
same,IC50,tubulin,58 µM
"COc1ccc2c(c1)[C@@H](NC(=O)OCCOP(=O)([O-])[O-])CCc1cc(OC)c(OC)c(OC)c1-2.[Na+].[Na+] [Example 4, 2-{N-[(5S)-3,9,10,11-tetramethoxy-6,7-dihydro-5H-dibenzo[a,c]cyclohepten-5-yl]carbamoyloxy}ethyl disodium phosphate]","necrosis score (0 = no significant change, 10 = 91-100% necrosis)",[1]; 50 m/kg,3.2
